Key:
[1] = biological target: human MEK1 (Homo sapiens, UniProt Q02750); assay: MEK-1 Enzyme Assay (LANCE-HTRF); assay type: biochemical; conditions: 100 nM MEK1, 15 μM ATP, 300 nM ERK2, two hours; read-out: MEK inhibition
Summary of the method: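 TR-FRET readout of MEK1-catalysed ERK1 phosphorylation; after a 2 h reaction, Eu-anti-PY20 (5 nM) and anti-GST-APC (50 nM) were added in buffer with 50 mM EDTA and 0.05% BSA, then incubated 1 h in the dark.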

[2] = test system: Murine colon C26 cells; assay: Tumor cell proliferation assay (ATP Lite), C26; assay type: cell-based; conditions: Mus musculus, 96 h, 4 days
Summary of the method: (§1)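 Cells seeded at 1500/well (C26) or 2000/well (A375, MiaPaCa-2) grew overnight, then were exposed to serially diluted compounds (0.25% DMSO final) for 4 days in serum-containing DMEM or RPMI. Viability read by ATPlite luminescence; IC50 is the concentration giving 50% cell death.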

[3] = test system: human melanoma A375 cells; assay: Tumor cell proliferation assay (ATP Lite), A375; assay type: cell-based; conditions: A-375, 96 h, 4 days
Summary of the method: as §1

[4] = test system: human melanoma cell MeI5; assay: Tumor cell proliferation assay (ATP Lite), MeI5; assay type: cell-based; conditions: MeI5 cells
Method: Assay 2: Tumor Cell Proliferation Assays (ATP Lite)
Murine colon C26, human melanoma A375 and MeI5 or human pancreatic MiaPaCa-2 cells were plated in 96 well Corning white plates (1500 cells/well for C26, and 2000 cells/well for A375, and MiaPaCa-2) and cultured overnight at 37° C. in 5% CO2. Inhibitors were serially diluted in 100% DMSO and subsequently added to cells to reach a final concentration of 0.25% DMSO. The cells were incubated for 4 days in the presence of test compounds in cell growth media (DMEM with 10% fetal bovine serum, 2 mM glutamine for C26, and MiaPaCa-2, and RPMI with 10% fetal bovine serum, 2 mM glutamine for A375). Cell proliferation was quantitated using the ATP lite cell proliferation kit (Packard). Columns 4-6 show the concentration of compounds required to induce 50% cell death (IC50 in μM) of […]. With “+” meaning 3 μM<IC50≦10 μM and “++” IC50≦3 μM and “n.d.” means not determined. Few compounds were also tested on human melanoma cell MeI5.

[5] = Microsomal stability assay, HLM; assay type: in vitro ADME; conditions: pooled human liver microsomes, pH 7.4; 3 μM compound, 0.5 mg/ml human liver microsomes, 37° C., 2 mM NADPH; read-out: HLM t1/2
Method: (§2) Assay 3: Microsomal Stability Assay
(§3) Compounds were tested on their stability in human, rat and mouse liver microsomal preparations (HLM, RLM and MLM respectively). At a final concentration of 3 μM, compounds were incubated at 37° C. with 0.5 mg/ml human, rat or mouse liver microsomes in a buffer containing 50 mM phosphate, pH 7.4 and 2 mM NADPH. Pooled human liver microsomes or pooled male rat liver microsomes (Sprague Dawley) were obtained from NatuTec (Frankfurt, Germany). Incubations without NADPH served as negative controls. Reactions were stopped after 0, 15, 30, 45 or 60 min by the addition of acetonitrile and microsomes were pelleted by centrifugation (10 min at 6200×g). Supernatants were analyzed by HPLC regarding the concentration of mother compound. Finally, the half life of compounds in the regarding microsomal preparation was calculated.

[6] = Microsomal stability assay, RLM; assay type: in vitro ADME; conditions: male, Sprague Dawley, pooled rat liver microsomes, pH 7.4; 3 μM compound, 0.5 mg/ml rat liver microsomes, 37° C., 2 mM NADPH; read-out: RLM t1/2
Method: as §2, §3

[7] = Microsomal stability assay, MLM; assay type: in vitro ADME; conditions: pH 7.4; 3 μM compound, 0.5 mg/ml mouse liver microsomes, 37° C., 2 mM NADPH; read-out: MLM t1/2
Method: as §2, §3

[8] = test system: Caco-2 cells; assay: Caco-2 permeability assay; assay type: in vitro ADME; conditions: 10 μM, pH 7.4, 120 minutes; for Caco A-B: Papp apical to basolateral; for Caco B-A: Papp basolateral to apical
Method: Assay 4: Caco-2 Permeability Assay
Caco-2 cells obtained from the ATCC at passage number 27 are used. Cells (passage number 40-60) were seeded on to Millipore Multiscreen Caco-2 plates or Falcon HTS inserts at 1×10^5 cells/cm2. Cells were cultured for 20 days in DMEM and media was changed every two or three days. On day 20 the permeability study was performed.
Permeability was studied by applying compound to the apical surface of cell monolayers and measuring compound permeation into the basolateral compartment. The experiment was also performed in the reverse direction (B-A) to investigate active transport. Hanks Balanced Salt Solution (HBSS) pH 7.4 buffer with 25 mM HEPES and 10 mM glucose at 37° C. was used as the medium in permeability studies. Incubations were carried out in an atmosphere of 5% CO2 with a relative humidity of 95%.
The monolayers were prepared by rinsing both basolateral and apical surfaces twice with HBSS at 37° C. Cells were then incubated with HBSS in both apical and basolateral compartments for 40 minutes to stabilize physiological parameters.
HBSS was then removed from the apical compartment and replaced with test compound dosing solutions. The solutions were made by diluting 10 mM DMSO concentrates with HBSS to give a final test compound concentration of 10 μM (final DMSO concentration adjusted to 1%). The fluorescent integrity marker lucifer yellow was also included in the dosing solution. Analytical standards were made from dosing solutions. Test compound permeability was assessed in duplicate. On each plate compounds of known permeability characteristics were run as controls.
The apical compartment inserts were then placed into ‘companion’ plates containing fresh HBSS. For basolateral to apical (B-A) experiments the experiment was initiated by replacing buffer in the inserts then placing them in companion plates containing dosing solutions. At 120 minutes the companion plate was removed and apical and basolateral samples diluted for analysis by LC-MS/MS (the donor compartment was also sampled to permit determination of starting concentration after non-specific binding has occurred).
The integrity of the monolayers throughout the experiment is checked by monitoring lucifer yellow permeation using fluorimetric analysis. Lucifer yellow permeation was low if monolayers have not been damaged. Test and control compounds were quantified by LC-MS/MS cassette analysis using a 5-point calibration with appropriate dilution of the samples. Should lucifer yellow Papps were above QC limits in more than one well per test compound, the compound was re-tested.
The permeability coefficient for each compound (Papp) was calculated from the following equation: Papp=[dQ/dt]/[C0×A]
Whereby dQ/dt is the rate of permeation of the drug across the cells, C0 is the donor compartment concentration at time zero and A is the area of the cell monolayer. C0 is obtained from analysis of the donor compartment at the end of the incubation period.
Test compounds were grouped into low, medium or high absorption potential based on comparison with control compounds, which have known human absorption.
In addition, permeation was studied in both directions across the cells, and an asymmetry index was reported from mean A-B and B-A data. This was derived from: Papp(B-A)/Papp(A-B)
Wherein “+” means a caco A-B and caco B-A value of 1-10 and “++” means a caco A-B and caco B-A value of 11-100.

[9] = test system: Tumors; conditions: patients; cited from earlier work
[10] = cited from earlier work

human MEK1, sequence (Q02750 whole entry): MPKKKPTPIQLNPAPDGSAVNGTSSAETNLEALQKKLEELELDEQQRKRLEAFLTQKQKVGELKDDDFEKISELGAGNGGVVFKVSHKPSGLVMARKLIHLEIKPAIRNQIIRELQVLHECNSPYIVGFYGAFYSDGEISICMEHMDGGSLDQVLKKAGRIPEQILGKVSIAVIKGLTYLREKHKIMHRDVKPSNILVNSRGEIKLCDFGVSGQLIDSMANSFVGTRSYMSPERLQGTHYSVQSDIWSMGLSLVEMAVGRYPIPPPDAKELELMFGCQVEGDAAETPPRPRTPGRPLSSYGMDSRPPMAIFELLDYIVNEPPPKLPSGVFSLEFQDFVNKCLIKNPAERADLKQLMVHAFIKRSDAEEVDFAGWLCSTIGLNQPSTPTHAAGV

| Compound | IC50 [1] | IC50 [2] | IC50 [3] | IC50 [4] | half-life at 3 µM [5] | half-life at 3 µM [6] | half-life at 3 µM [7] | Caco A-B [8] | Caco B-A [8] | efficacy in clinical phase II trials [9] | bioavailability [10] |
| --- | --- | --- | --- | --- | --- | --- | --- | --- | --- | --- | --- |
| CCONC(=O)c1ccncc1Nc1ccc(I)cc1C [Example 5, N-Ethoxy-3-[(4-iodo-2-methylphenyl)amino]isonicotinamide] | < 1 µM | 3 to 10 µM | ≤ 3 µM | ≤ 3 µM |  |  |  |  |  |  |  |
| CCONC(=O)c1ccncc1Nc1ccc(Br)cc1C [Example 4, 3-[(4-Bromo-2-methylphenyl)amino]-N-ethoxyisonicotinamide] | < 1 µM |  | ≤ 3 µM | 3 to 10 µM | 0.517 to 2 h | 0.517 to 2 h |  |  |  |  |  |
| Cc1cc(I)ccc1Nc1cnccc1C(=O)NOC[C@H](O)CO [Example 9, 3-[(2-methyl-4-iodophenyl)amino]-N-{[(2R)-2,3-dihydroxypropyl]oxy}-isonicotinamide] | < 1 µM | 3 to 10 µM | ≤ 3 µM |  | > 2 h | > 2 h | > 2 h | + (a caco A-B and caco B-A value of 1-10) | ++ (a caco A-B and caco B-A value of 11-100) |  |  |
| Cc1cc(I)ccc1Nc1cnccc1C(=O)NOC[C@@H](O)CO [Example 124, N—((S)-2,3-Dihydroxy-propoxy)-3-(4-iodo-2-methyl-phenylamino)-isonicotinamide] | < 1 µM | 3 to 10 µM |  | ≤ 3 µM |  |  |  |  |  |  |  |
| Cc1cc(I)ccc1Nc1cnccc1C(=O)NS(C)(=O)=O [Example 123, N-[3-(4-Iodo-2-methyl-phenylamino)-pyridine-4-carbonyl]-methanesulfonamide] | < 1 µM |  |  |  | 0.517 to 2 h | 0.0167 to 0.5 h |  |  |  |  |  |
| CNCCNc1nnc(-c2ccncc2Nc2ccc(Br)cc2F)o1 [Example 128, N-{5-[3-(4-Bromo-2-fluoro-phenylamino)-pyridin-4-yl]-[1,3,4]oxadiazol-2-yl}-N′-methyl-ethane-1,2-diamine] | < 1 µM |  |  |  | > 2 h | 0.517 to 2 h |  | ++ (a caco A-B and caco B-A value of 11-100) | ++ (a caco A-B and caco B-A value of 11-100) |  |  |
| OCCNc1nnc(-c2ccncc2Nc2ccc(Br)cc2F)o1 [Example 127, 2-{5-[3-(4-Bromo-2-fluoro-phenylamino)-pyridin-4-yl]-[1,3,4]oxadiazol-2-ylamino}-ethanol] |  |  |  |  | > 2 h | > 2 h | 0.0167 to 0.5 h | ++ (a caco A-B and caco B-A value of 11-100) | ++ (a caco A-B and caco B-A value of 11-100) |  |  |
| C=CCNc1nnc(-c2ccncc2Nc2ccc(Br)cc2C)o1 [Example 129, [4-(5-Allylamino-[1,3,4]oxadiazol-2-yl)-pyridin-3-yl]-(4-bromo-2-methyl-phenyl)-amine] | < 1 µM |  |  |  | > 2 h | 0.517 to 2 h | > 2 h | ++ (a caco A-B and caco B-A value of 11-100) | ++ (a caco A-B and caco B-A value of 11-100) |  |  |
| O=C(NOCC1CC1)c1ccc(F)c(F)c1Nc1ccc(I)cc1Cl [PD-184352] |  |  |  |  |  |  |  |  |  | lacking efficacy | low |

Source: US8524911B2, “3-arylamino pyridine derivatives” (Merck Serono SA, priority 2004, dated 2013)
